The values that follow come from paper PMC12655351, “Synthesis and Anticancer Activity Evaluation of New 5-((5-Nitrofuran-2-yl)allylidene)-2-thioxo-4-thiazolidinones” (Pharmaceuticals, 2025).

The test system of data set [1] is caspase-9 in MDA-MB-231 cells. Kind of data set: FLICA caspase-9 flow cytometry. The following applies: MDA-MB-231, 24 h, concentration not given. The class given is cell-based, human. On the procedure:
To further analyze the compounds’ effects on the intrinsic pathway of the process of programmed cell death, it was decided to assess the expression of initiator caspase-9 on MCF-7 and MDA-MB-231 cell lines after 24 h of treatment using the flow cytometry method. Caspase-9 is an initiator caspase that directly activates executive caspase-3; as such, it has a significant effect on apoptosis. […] For the MDA-MB-231 line, the results were even more prominent, with every tested compound and concentration displaying a notable increase in cells with active caspase-9.
To determine the effects of the novel compounds on the caspase-9 activity, the FLICA Caspase-9 Assay Kit was applied (ImmunoChemistry Technologies, Bloomington, MN, USA). MCF-7 and MDA-MB-231 cells were seeded on 6-well plates (5 × 10^5 cells per well) and incubated for 24 h. Next, they were treated with tested compounds 2b, 12b, and 14b in a concentration of 1 and 5 µM for the MCF-7 cell line and 5 and 10 µM for the MDA-MB-231 cell line and the reference drug, doxorubicin hydrochloride, in a concentration of 1 and 5 µM for both lines for 24 h. […] Prepared samples were evaluated by a BD FACSCanto II flow cytometer (Becton Dickinson Biosciences, San Jose, CA, USA). For each sample, 1 × 10^4 events were analyzed. […]

Data set [2] has as its system Bax protein in MDA-MB-231 cells. In words: anti-Bax antibody flow cytometry. The class given is cell-based, human. Particulars: MDA-MB-231, concentration not stated (5 or 10 µM), 24 h. On the procedure: (§1) The effect of the tested compounds on the intrinsic mitochondrial pathway of programmed cell death was further assessed. For this purpose, the concentration of the proapoptotic Bax protein from the Bcl-2 family was examined. The concentration of this protein was analyzed in breast cancer cells after treatment with novel compounds at concentrations of 1 and 5 µM for the MCF-7 line and 5 and 10 µM for the MDA-MB-231 line.
(§2) An anti-Bax FITC-conjugated antibody was applied to evaluate the effect of tested compounds on the concentration of Bax protein in this experiment. First, MCF-7 and MDA-MB-231 cells were seeded into 6-well plates at 5 × 10^5 cells per well. Test compounds 2b, 12b, and 14b were then added at concentrations of 1 and 5 µM and 5 and 10 µM for MCF-7 and MDA-MB-231, respectively. The concentration of doxorubicin as a reference compound was 1 and 5 µM for both lines. After 24 h of incubation, cells were harvested, centrifuged, washed with 1 mL of PBS, and then fixed with 4% paraformaldehyde for 15 min at RT. After removal of the paraformaldehyde, cells were washed with PBS, then resuspended in 0.5 mL of cold 90% methanol, and frozen at −20 °C. […] The prepared samples were read immediately using the BD FACS Canto II flow cytometer (Becton Dickinson Biosciences, San Jose, CA, USA).

For the next data set, the system named is HOP-92. The following applies: human, 48 h.
In data set [3] the test system is cytochrome C in MCF-7 cells. In words: cytochrome C ELISA. The class given is cell-based, human. The following applies: MCF-7, 5 μM, 24 h. On the procedure:
(§3) The influence of the examined compounds on the level of cytochrome C, one of the crucial proteins of the intrinsic pathway of programmed cell death, was assessed. This protein is released into the cytoplasm from the mitochondrial intermembrane space as a result of the decrease in mitochondrial membrane potential. […] The most significant result was reported for compound 14b at a concentration of 5 μM in the MCF-7 cell line and 10 µM in the MDA-MB-231 cell line, where the concentration of cytochrome C was 9.54 ng/mL and 15.26 ng/mL, respectively (Figure 10).
(§4) Using a SimpleStep ELISA kit (Abcam, Cambridge, UK), we determined the levels of cytochrome C and caspase-3 in cells’ lysates with 2b, 12b, and 14b (1 and 5 μM for the MCF-7 cell line and 5 and 10 μM for the MDA-MB-231) and doxorubicin in concentrations of 1 and 5 μM for both lines after 24 h incubation. Assays were performed according to the manufacturer’s protocols.

Data set [4] concerns cytochrome C in MDA-MB-231 cells. Kind of data set: cytochrome C ELISA. In kind it is cell-based, human. The following applies: MDA-MB-231, 10 μM, 24 h. On the procedure: as §3, §4
For another data set, the system named is caspase-3 in MCF-7 cells. Kind of data set: caspase-3 ELISA. In kind it is cell-based, human. The following applies: MCF-7, 1 μM, 24 h. On the procedure: To confirm the activity of the caspase pathway, an effector caspase-3 was assayed on MCF-7 and MDA-MB-231 cell lines after 24 h of treatment using the ELISA method. Novel 4-thiazolidinone derivatives were tested in concentrations of 1 and 5 μM for the MCF-7 cell line and 5 and 10 μM for the MDA-MB-231 cell line.
as §4

Data set [5] deals with Bax protein in MCF-7 cells. Kind of data set: anti-Bax antibody flow cytometry. In kind it is cell-based, human. Particulars: MCF-7, 5 μM, 24 h. The procedure:
as §1, §2
In general terms: A flow cytometer gives signals particle by particle.

Another data set has as its system U251. Particulars: human, 48 h.
In a further data set the test system is IGROV1. The following applies: human, 48 h.

Consider `CC(C(=O)O)N1C(=O)/C(=C/C=C/c2ccc([N+](=O)[O-])o2)SC1=S` (stereo not drawn) [2b, 2-((Z)-5-((E)-3-(5-Nitrofuran-2-yl)allylidene)-4-oxo-2-thioxothiazolidin-3-yl)propanoic acid], for which, in data set [1], the “cells with active caspase-9” value is on record as 83.95%. In data set [2], this molecule returned a Bax-positive cell population of 26.33%.
Regarding `O=C(O)CCCCCN1C(=O)/C(=C/C=C/c2ccc([N+](=O)[O-])o2)SC1=S` [14b, 6-((Z)-5-((E)-3-(5-nitrofuran-2-yl)allylidene)-4-oxo-2-thioxothiazolidin-3-yl)hexanoic acid], the results for the CC50 in the data set on HOP-92 and in the data set with U251 were 5.84 µM and 5.02 µM, respectively. The entries for the “concentration of cytochrome C” value in data set [3] and in data set [4] were 9.54 ng/mL and 15.26 ng/mL, respectively. The “change of caspase-3 concentration” value with caspase-3 in MCF-7 cells is “statistically significant result”. Besides, the Bax-positive cell population in [5] was 14.67%.
In the data set on IGROV1, `O=C(O)CCCN1C(=O)/C(=C/C=C/c2ccc([N+](=O)[O-])o2)SC1=S` [13b, 4-((Z)-5-((E)-3-(5-Nitrofuran-2-yl)allylidene)-4-oxo-2-thioxothiazolidin-3-yl)butanoic acid] showed a CC50 of 7.77 µM.
